Measurements: paper PMC10051705, “Leishmanicidal Activity of Guanidine Derivatives against Leishmania infantum” (Tropical Medicine and Infectious Disease, 2023)
Marks after values point to notes of the source that are not given here.

What was measured:
[1] = tested on: L. infantum promastigotes; assay: apoptosis/necrosis profiling, annexin V/PI staining, promastigotes; format: cell-based, Leishmania infantum
Method: (§1) To evaluate both apoptosis and necrosis, promastigote forms of L. infantum in the log phase of growth were incubated at several concentrations based on the IC50 values of LQOFG-2 (6.35; 12.7, 25.4, and 50.8 µM) LQOFG-6 (12.2, 24.4, 48.8 and 97.6 µM), and LQOFG-7 (11.65, 23.3, 46.6 and 93.2 µM), and AmB (1.5 and 6 µM) was used as the positive control. The plates were incubated for 24 h at 26 °C ± 1 °C in a B.O.D. incubator. After incubation, the promastigotes were washed three times in cold PBS, resuspended in binding buffer (10-mM HEPES, 140-mM NaCl, and 2.5-mM CaCl2, pH 7.4), and stained using a FITC Annexin V/Dead Cell Apoptosis Kit (BD Biosciences, San Jose, CA, USA) according to the manufacturer’s instructions. The stained cells were diluted and suspended in an Annexin V binding buffer (BD Biosciences, San Jose, CA, USA). Annexin V-FITC/propidium iodide (PI)-stained cells were analyzed using a BD FACSCanto II flow cytometer (BD Biosciences, San Jose, CA, USA). The raw data were analyzed using FlowJo 10.0.7 software (TreeStar Inc., Ashland, OR, USA).

human red blood cells = assay: red blood cell lysis assay; format: cell-based; conditions: 1 h, 37 °C
Method: The hemolytic activities of guanidine compounds were measured using human red blood cells from healthy adults (n = 3) according to methods previously described. Briefly, 80 µL of a 5% erythrocyte/phosphate-buffered saline (PBS) suspension was mixed with 20 µL of LQOFG-2, LQOFG-6, LQOFG-7, (1000 to 7.8 µM), and AmB (100 to 0.78 µM). After incubation at 37 °C for 1 h, 200 µL of PBS (1.5 mM KH2PO4, 8.1 mM Na2HPO4, 136.9 mM NaCl, and 2.6 mM KCl, pH 7.2) was added to stop the hemolysis process, and the samples were centrifuged for 10 min at 1000× g. The supernatants were collected, and the extent of hemolysis was measured spectrophotometrically at 540 nm. The hemolysis percentage was determined as [(Abssam − Abscon)/(Abstot − Abscon) × 100], where Abssam is the absorbance of the sample, Abscon is the absorbance of the blank control (without drugs), and Abstot is the absorbance of total hemolysis (replacing the sample solution with an equal volume of ultrapure water (Direct-Q UV®, Guyancourt, France)).

[2] = tested on: L. infantum axenic amastigotes; assay: axenic amastigote inhibition assay (MTT); format: cell-based; conditions: Leishmania infantum, 24 h; for EC50: 37 °C, pH 5.5, MTT; for inhibition at 31.2 µM: read-out: inhibition of axenic amastigotes compared to the control (untreated)
[3] = tested on: L. infantum promastigotes; assay: promastigote growth inhibition assay (MTT); format: cell-based; conditions: Leishmania infantum, 72 h, 26 °C
Method: The promastigote forms of Leishmania (Leishmania) infantum [IOC/L0579(MHOM/BR/1974/PP75)] were cultured in Schneider’s medium, pH 7.0, supplemented with 20% heat-inactivated fetal bovine serum (FBS), 2% male human urine, 100 U/mL of penicillin, and 100 mg/L of streptomycin, and the parasites were maintained at 26 °C. The procedure to obtain the extracellular axenic amastigote form of L. infantum was based on methods previously described that were modified using a Schneider medium readjusted to pH 5.5 at 37 °C. The culture of promastigote forms in the stationary phase was centrifuged, and the medium of these cells was replaced and differentiated into axenic amastigotes by temperature and medium pH changes. Parasites were maintained in culture for no more than 20 passages.
The promastigote growth inhibition assay was performed as previously described. Promastigotes were harvested during the exponential growth phase. They were incubated in the presence and absence of several concentrations of LQOFG-2, LQOFG-6, LQOFG-7 (500 to 7.8 µM), and AmB (10 to 0.078 µM) as the positive control. The plate was incubated at 26 °C for 72 h in a biological oxygen demand (B.O.D.) incubator using a Schneider’s medium (Schneider’s Insect Medium 24.5 g/L; L-glutamine 1.8 g/L; glucose 2 g/L and sodium bicarbonate 0.4 g/L; Sigma-Aldrich—St. Louis—USA) supplemented. The growth inhibition was evaluated using an MTT assay kit (Amresco, Solon, OH, USA) according to the manufacturer’s protocol. After 4 h of incubation, 10% sodium dodecyl sulfate was added to dissolve the formazan crystals. The absorbance (540 nm) was measured using a plate reader (Biosystems model ELx800; Curitiba, PR, Brazil). […] Three independent experiments we performed in triplicate.

[4] = in vitro cytotoxicity in PBMC (MTT); format: cell-based, human; conditions: both sexes, human, peripheral blood mononuclear cells (PBMCs), human PBMC, 24 h, MTT
Method: (§2) In vitro cytotoxicity was evaluated using peripheral blood mononuclear cells (PBMCs) collected from three healthy volunteers (2 males, mean age 33; and 1 person). PBMCs were separated by density gradient using Ficoll Paque PLUS (GE Healthcare, USA), pelleted by centrifugation (400× g for 40 min), and resuspended in RPMI 1640 medium, then supplemented with 10% fetal bovine serum and 1% antibiotic solution (penicillin 5000 Units/mL + streptomycin 5000 μg/mL). After 24 h of treatment, cell viability was evaluated by the modified colorimetric method based on the tetrazolium dye MTT (3-(4,5-dimethylthiazol-2-yl)-2,5- diphenyltetrazolium bromide). The MTT assay was used for in vitro cytotoxicity as previously described with the following modifications: cells were exposed to serially diluted concentrations of LQOFG-2, LQOFG-6, LQOFG-7 (1000 to 7.8 µM), and AmB (100 to 0.78 µM). The plates were kept at 37 °C for 24 h. MTT (5 mg/mL) was added and incubated for 4 h at 37 °C, after which the plates were centrifuged, the supernatant was discarded, and DMSO was added, leaving the plates under stirring to solubilize the formazan salts. Absorbance was measured at 540 nm using a plate reader (ELx800; Curitiba, PR, Brazil). The mean percentage of viable cells was calculated relative to the untreated control.

[5] = tested on: peripheral blood mononuclear cells (PBMCs); assay: in vitro cytotoxicity in PBMC (MTT); format: cell-based, human; conditions: CC50 PBMC / EC50 axenic amastigotes
Method: as §2

[6] = tested on: L. infantum axenic amastigotes; assay: apoptosis/necrosis profiling, annexin V/PI staining, axenic amastigotes; format: cell-based, Leishmania infantum
Method: as §1
To evaluate both apoptosis and necrosis of the amastigote-like forms of L. infantum, the protocol was followed. In each well, amastigotes were treated with the guanidine compounds and controls.

Row | Structure (SMILES) | % cells, Early Apoptosis (AV+, PI−) ([1]; 0.5× IC50, 24 h) | % cells, Late Apoptosis (AV+, PI+) ([1]; 0.5× IC50, 24 h) | % cells, Necrosis (AV−, PI+) ([1]; 0.5× IC50, 24 h) | % cells, Early Apoptosis (AV+, PI−) ([1]; 1× IC50, 24 h) | % cells, Late Apoptosis (AV+, PI+) ([1]; 1× IC50, 24 h) | % cells, Necrosis (AV−, PI+) ([1]; 1× IC50, 24 h) | % cells, Early Apoptosis (AV+, PI−) ([1]; 2× IC50, 24 h) | % cells, Late Apoptosis (AV+, PI+) ([1]; 2× IC50, 24 h) | % cells, Early Apoptosis (AV+, PI−) ([1]; 4× IC50, 24 h) | % cells, Late Apoptosis (AV+, PI+) ([1]; 4× IC50, 24 h) | HC50, toxicity to red blood cells (human red blood cells) | EC50 [2] | inhibition at 31.2 µM [2] | IC50 [3] | CC50 at 24 h [4] | SI (CC50/EC50) [5] | % cells, Early Apoptosis (AV+, PI−) ([6]; 0.5 × EC50, 24 h) | % cells, Late Apoptosis (AV+, PI+) ([6]; 0.5 × EC50, 24 h) | % cells, Early Apoptosis (AV+, PI−) ([6]; 1 × EC50, 24 h) | % cells, Late Apoptosis (AV+, PI+) ([6]; 1 × EC50, 24 h) | other results
1 | O=C(/N=C(/NCc1ccccc1)Nc1ccc(Br)cc1)c1ccccc1 [LQOFG-2, (Z)-N-((benzylamine)((4-bromophenyl)amino)methylene)benzamide] | 0.27± 0.09% | 0.55 ± 0.04% | 1.69 ± 0.28% | 0.12 ± 0.02% | 0.41 ± 0.14% | 2.07 ± 0.23% | 0.35 ± 0.01% | 0.78 ± 0.15% | 0.34 ± 0.09% | 0.63 ± 0.12% | >1000 µM | 26.1 ± 1.22 µM | 57.7% | 12.7 ± 0.25 µM | 313 ± 3.23 µM | 12.00 | 5.68 ± 0.29 ^a % | 31.43 ± 0.03 ^b % | 8.13 ± 0.84 ^d % | 33.23 ± 0.73 ^c % | % cells, Necrosis (AV−, PI+) ([1]; 2× IC50, 24 h): 1.52 ± 0.24%; % cells, Necrosis (AV−, PI+) ([1]; 4× IC50, 24 h): 1.79 ± 0.59%; % cells, Necrosis (AV−, PI+) ([6]; 0.5 × EC50, 24 h): 13.20 ± 1.62%; % cells, Necrosis (AV−, PI+) ([6]; 1 × EC50, 24 h): 11.97 ± 0.66%; % cells, Early Apoptosis (AV+, PI−) ([6]; 2 × EC50, 24 h): 7.68 ± 0.39 ^d %; % cells, Late Apoptosis (AV+, PI+) ([6]; 2 × EC50, 24 h): 56.27 ± 1.51 ^d %; % cells, Necrosis (AV−, PI+) ([6]; 2 × EC50, 24 h): 15.93 ± 1.02%; % cells, Early Apoptosis (AV+, PI−) ([6]; 4 × EC50, 24 h): 7.55 ± 1.18 ^d %; % cells, Late Apoptosis (AV+, PI+) ([6]; 4 × EC50, 24 h): 67.50 ± 2.05 ^d %; % cells, Necrosis (AV−, PI+) ([6]; 4 × EC50, 24 h): 13.80 ± 1.47%
2 | CC(C)(C)c1ccc(N/C(=N\C(=O)c2ccccc2)NCc2ccccc2)cc1 [LQOFG-6, (Z)-N-((benzylamine)((4-(tert-butyl)phenyl)amino)methylene)benzamide] | 0.65 ± 0.19% | 0.18 ± 0.01% | 0.85 ± 0.09% | 0.46 ± 0.13% | 0.20 ± 0.03% | 1.47 ± 0.21% | 0.51 ± 0.08% | 0.32 ± 0.06% | 0.91 ± 0.34% | 0.20 ± 0.03% | >1000 µM | 21.1 ± 1.13 µM | 59.9% | 24.4 ± 0.76 µM | > 1000 µM | >47.4 | 3.62 ± 0.39% | 17.10 ± 0.80% | 4.05 ± 0.22% | 20.00 ± 1.74% | % cells, Necrosis (AV−, PI+) ([6]; 1 × EC50, 24 h): 6.57 ± 1.20%; % cells, Early Apoptosis (AV+, PI−) ([6]; 2 × EC50, 24 h): 5.72 ± 0.20 ^a %; % cells, Late Apoptosis (AV+, PI+) ([6]; 2 × EC50, 24 h): 25.50 ± 0.80%; % cells, Necrosis (AV−, PI+) ([6]; 2 × EC50, 24 h): 7.15 ± 0.21%; % cells, Early Apoptosis (AV+, PI−) ([6]; 4 × EC50, 24 h): 9.06 ± 0.70 ^d %; % cells, Late Apoptosis (AV+, PI+) ([6]; 4 × EC50, 24 h): 45.47 ± 1.30 ^d %; % cells, Necrosis (AV−, PI+) ([6]; 4 × EC50, 24 h): 8.14 ± 0.78%
